According to paper PMC6934184, “Selective DNA-PKcs inhibition extends the therapeutic index of localized radiotherapy and chemotherapy” (The Journal of Clinical Investigation, 2019):

Molecular target: T1, HIPK1 (Myak) (Homo sapiens, UniProt Q86Z02)
T1 construct: purchased Thermo Fisher Scientific (Life Technologies) SelectScreen
Assay: SelectScreen Z'LYTE
Type: biochemical
Procedure, shortened: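 NU5455 was profiled across the SelectScreen Broad panel of kinase activity and binding assays. Z'LYTE reactions such as CSF1R ran at apparent Km ATP, while the Adapta CAMK1 assay used ATP listed as 10. Values are given as percent.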

T1 sequence (Q86Z02 whole entry): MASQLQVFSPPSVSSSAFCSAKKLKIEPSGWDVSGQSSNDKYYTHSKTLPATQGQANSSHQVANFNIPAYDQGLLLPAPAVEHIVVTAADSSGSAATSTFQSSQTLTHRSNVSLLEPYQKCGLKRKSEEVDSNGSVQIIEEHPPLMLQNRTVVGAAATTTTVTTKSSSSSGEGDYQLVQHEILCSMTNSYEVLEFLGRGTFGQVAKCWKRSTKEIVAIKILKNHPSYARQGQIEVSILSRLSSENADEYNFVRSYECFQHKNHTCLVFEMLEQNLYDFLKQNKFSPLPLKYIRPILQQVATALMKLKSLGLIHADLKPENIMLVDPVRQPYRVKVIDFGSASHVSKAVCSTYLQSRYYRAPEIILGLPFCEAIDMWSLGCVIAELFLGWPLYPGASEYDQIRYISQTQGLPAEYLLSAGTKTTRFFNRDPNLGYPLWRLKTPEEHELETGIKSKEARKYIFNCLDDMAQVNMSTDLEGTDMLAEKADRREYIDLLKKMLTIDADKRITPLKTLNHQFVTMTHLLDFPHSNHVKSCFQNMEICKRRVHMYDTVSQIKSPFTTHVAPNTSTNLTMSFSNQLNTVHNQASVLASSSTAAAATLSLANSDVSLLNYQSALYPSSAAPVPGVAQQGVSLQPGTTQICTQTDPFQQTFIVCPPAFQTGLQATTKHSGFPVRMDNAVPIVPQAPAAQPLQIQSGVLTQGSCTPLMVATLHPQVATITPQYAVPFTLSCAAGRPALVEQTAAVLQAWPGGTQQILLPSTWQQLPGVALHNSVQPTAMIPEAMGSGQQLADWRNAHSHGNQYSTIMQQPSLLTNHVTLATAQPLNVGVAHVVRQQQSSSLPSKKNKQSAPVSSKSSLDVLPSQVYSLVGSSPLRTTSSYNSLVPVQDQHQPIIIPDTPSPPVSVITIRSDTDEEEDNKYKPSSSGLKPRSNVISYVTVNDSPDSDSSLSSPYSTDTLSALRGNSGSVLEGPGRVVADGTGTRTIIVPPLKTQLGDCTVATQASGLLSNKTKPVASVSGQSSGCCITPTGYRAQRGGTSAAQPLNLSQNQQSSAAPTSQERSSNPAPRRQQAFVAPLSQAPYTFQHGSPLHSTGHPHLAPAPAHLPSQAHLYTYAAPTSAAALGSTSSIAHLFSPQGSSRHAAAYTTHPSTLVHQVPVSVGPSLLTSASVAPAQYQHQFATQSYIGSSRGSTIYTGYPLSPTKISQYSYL

SMILES: CN(C(=O)CN1CCOCC1)c1ccc2sc3c(-c4cccc5c(=O)cc(N6CC7CCC(C6)O7)oc45)cccc3c2c1 [NU5455]
- inhibition at 1 µM: 2.8%
